Here are results for one molecule from patent US12162858B2, “Quinoline derivatives as inhibitors of AXL/MER RTK and CSF1R” (QURIENT CO., LTD., priority 2018, dated 2024).

For one experiment, the system named is EMT-6 tumor cells. As to the kind of experiment: EMT-6 syngeneic tumor model. It is filed as in vivo, BALB/c mice. The following applies: oral, daily; vs compound 27 of WO 2016/166250 or vehicle; FIG. 1. From the text:
(§1) FIGS. 1 and 2 show comparison data of compound 4 of the present invention (marked with two asterisks** and diamond) vs. compound 27 of WO2016/166250 (marked with single asterisk* and open square) in mouse models EMT-6 and MV4-11; EMT-6 measures triple inhibition of Axl, Mer and CSF1R. MV4-11 measures inhibition of Axl.
In case of CSF1R, it mediates tumorigenesis in tumor-immune microenvironments and is expressed on myeloid cell tumor-associated macrophages (TAMs); elevated serum CSF1, increased numbers of TAMs in tumors, and high expression of tissue CSF1 and/or CSF1R are associated with poor prognosis in patients with various cancers. […] Therefore, EMT-6 is a suitable model for immune-oncology drug efficacy effects through changes in target immune cells.
BALB/c mice (6-8 week female, Beijing Vital River Laboratory Animal Technology Co., Ltd.) were inoculated subcutaneously at the upper right flank with EMT-6 tumor cells (1×10^6) in 0.1 mL of PBS for tumor development. […] Tumor volumes were measured every 3 days with a digital caliper, and were calculated using the formula: V=0.5a×b^2 where a and b are the long and short diameters of the tumor in mm, respectively. Body weight was measured every 3 days. […] Death and observed clinical signs were recorded on the basis of the numbers of animals within each subset. […]

A further experiment relates to MV4-11 tumor cells. Put plainly: MV4-11 xenograft tumor model. It is filed as in vivo, BALB/c nude mice. The following applies: oral, daily; vs compound 27 of WO 2016/166250 or vehicle; FIG. 2.
Excerpt: as §1
High expression of Axl or Gas6 in acute myeloid leukemia (AML) patients is prognostic for poor survival outcome. AML cells induce expression and secretion of the Axl ligand Gas6 by bone marrow-derived stromal cells (BMDSCs). Gas6 in turn mediates proliferation, survival, and chemoresistance of Axl-expressing AML cells. This Gas6/Axl paracrine axis between AML cells and BMDSCs establishes a chemoprotective tumor cell niche that can be abrogated by Axl-targeting approaches. […]
BALB/c nude mice (6-8 week female, Shanghai SIPPR/BK Laboratory Animal Co., LTD.) were inoculated subcutaneously at the upper right flank with MV4-11 tumor cells (1×10^7) in 0.1 mL of PBS+Matrigel (1:1) for tumor development. […] Tumor volumes were measured every 3 days with a digital caliper, and were calculated using the formula: V=0.5a×b^2 where a and b are the long and short diameters of the tumor in mm, respectively. Body weight was measured every 3 days. […] Death and observed clinical signs were recorded on the basis of the numbers of animals within each subset. […]

On to `CCn1cc(OCC(F)(F)F)c(C(=O)Nc2ccc(Oc3ccnc4cc(OC)c(OC)cc34)cn2)n1` [Compound 4], for which the “tumor growth delay, EMT-6 syngeneic model” value in the experiment on EMT-6 tumor cells is “delay tumor growth to a significantly larger extent”. Also, in the experiment with MV4-11 tumor cells, the “tumor growth delay, MV4-11 xenograft model” value is “delay tumor growth to a drastically larger extent”.
